Where two headings read alike, the source gives them in different places.
Assays:
[1] = Earlier single and multiple ascending dose plasma and urine pharmacokinetic studies in healthy volunteers and Fabry patients; conditions: human, in vivo
[2] = test system: lyso-Gb3; assay: Plasma lyso-Gb3 in Fabry patients on migalastat; assay type: in vivo, human
Text: In further embodiments, the method further comprises measuring lyso-Gb3 in one or more plasma samples from the patient. A first baseline lyso-Gb3 level may be determined during the first time period. As used herein, “baseline lyso-Gb3 level” refers to the lowest plasma lyso-Gb3 value measured during a given time period or dosing regimen. […] Thus, in further embodiments, the administration of the second time period is begun after an increase (e.g., of at least about 20, 25, 30, 33, 35, 40, 45 or 50% and/or 1, 1.25, 1.5, 1.75, 2, 2.25, 2.5 or 3 nM) above the first baseline lyso-Gb3 level is measured. […] Lyso-Gb3 levels may be measured at varying frequencies (e.g., about once every 2, 3, 4 or 5 months). It is thought that it takes about 3 months for a baseline lyso-Gb3 level to be established once a dosing regimen has been started.
Lyso-Gb3 can be measured via methods known in the art using validated assays. […] For example, one process of measuring plasma lyso-Gb3 is described in Hamler, Rick, et al. “Accurate quantitation of plasma globotriaosylsphingosine (lyso-Gb3) in normal individuals and Fabry disease patients by liquid chromatography—tandem mass spectrometry (LC—MS/MS).” Molecular Genetics and Metabolism, Volume 114.2 (2015):S51. In one or more embodiments, lyso-Gb3 is measured in samples from a patient's urine.

[3] = eGFR (MDRD), IDMS traceable, in Fabry patients on migalastat; assay type: in vivo, human; design: eGFR(MDRD), IDMS Traceable: unit not given here
Method: An estimated GFR (eGFR) is calculated from serum creatinine using an isotope dilution mass spectrometry (IDMS) traceable equation. Two of the most commonly used equations for estimating glomerular filtration rate (GFR) from serum creatinine are the Chronic Kidney Disease Epidemiology Collaboration (CKD-EPI) equation and the Modification of Diet in Renal Disease (MDRD) Study equation. Both the MDRD Study and CKD-EPI equations include variables for age, gender, and race, which may allow providers to observe that CKD is present despite a serum creatinine concentration that appears to fall within or just above the normal reference interval. The following is the IDMS-traceable MDRD Study equation (for creatinine methods calibrated to an IDMS reference method): […]

[4] = test system: Fabry disease; assay: Phase 3 studies (FACETS, ATTRACT) of migalastat 150 mg every other day in Fabry patients; assay type: in vivo, human
Text: One or more of the dosing regimens described herein are particularly suitable for Fabry patients who have some degree of renal impairment. […]00925301) was a 24-month trial, including a 6-month double-blind, placebo-controlled period, in 67 enzyme replacement therapy (ERT)-naive patients. ATTRACT (012, NCT01218659) was an active-controlled, 18-month trial in 57 ERT-experienced patients with a 12-month open-label extension (OLE). […] Accordingly, both studies included Fabry patients with normal renal function as well as patients with mild and moderate renal impairment, but neither study included patients with severe renal impairment. […] With a slowing in the ability to clear the drug from the body there can be an increasing exposure to the patient to the drug. Thus, in some embodiments a dose adjustment protocol is provided to inform physicians of the best dose taking into consideration the current clearance profile from the body. Dose adjustment is particularly difficult with a chaperone because it is an inhibitor, and a delicate balance must be reached such that the chaperone is present in amounts great enough to be therapeutic, but also not so great that the chaperone inhibits enzyme function (which would exacerbate the disease).

[5] = cited from earlier work; for Mean percent of the dose recovered in urine: single ascending dose (SAD) study
[6] = test system: cardiac repolarization; conditions: 150 mg and 1250 mg single doses; cited from earlier work
[7] = Fabry patient P1, 18 Month Visit
[8] = Fabry patient P1, 24 Month Visit
[9] = Fabry patient P1, 34-Month Visit
[10] = Fabry patient P3, August 2014, QOD
[11] = Fabry patient P3, August 2017, Q4D
[12] = Fabry patient P3, February 2014, QOD
[13] = Fabry patient P3, February 2018, Q7D
[14] = Fabry patient P3, January 2018, Q7D
[15] = Fabry patient P3, June 2015, QOD
[16] = Fabry patient P3, March 2011, QOD
[17] = Fabry patient P3, March 2016, QOD
[18] = Fabry patient P3, May 2017, Q4D
[19] = Fabry patient P3, November 2017, Q4D
[20] = Fabry patient P3, September 2010, QOD
[21] = Fabry patient P3, September 2015, QOD

Question: For `OC[C@H]1NC[C@H](O)[C@@H](O)[C@H]1O` [migalastat, (2R,3S,4R,55)-2-(hydroxymethyl) piperdine-3,4,5-triol], which route of excretion [1] is on record?
Answer: primarily excreted unchanged in urine

Question: And the Lyso-Gb3 [2, 7]?
Answer: 11.1 nM/L

Question: What about the Lyso-Gb3 [2, 8] of the same molecule?
Answer: 13.1 nM/L

Question: What about the Lyso-Gb3 ([2]; Fabry patient P1, 30 Month Visit) of the same molecule?
Answer: 10.8 nM/L

Question: And the Lyso-Gb3 [2, 9]?
Answer: 9.3 nM/L

Question: And the “change of plasma lyso-Gb3 from previous visits” value ([2]; Fabry patient P1, decline in renal function to eGFR of 32 mL/min/1.73 m^2)?
Answer: has not shown clinically relevant changes

Question: What about the Lyso-Gb3 [2, 10] of the same molecule?
Answer: 13.10 nmol/L

Question: What about the Lyso-Gb3 [2, 11] of the same molecule?
Answer: 9.85 nmol/L

Question: And the Lyso-Gb3 [2, 12]?
Answer: 11.10 nmol/L

Question: And the Lyso-Gb3 ([2]; Fabry patient P3, February 2015, QOD)?
Answer: 10.80 nmol/L

Question: What about the Lyso-Gb3 [2, 13] of the same molecule?
Answer: 7.04 nmol/L

Question: What about the Lyso-Gb3 [2, 14] of the same molecule?
Answer: 9.04 nmol/L

Question: And the Lyso-Gb3 [2, 15]?
Answer: 9.30 nmol/L

Question: What about the Lyso-Gb3 [2, 16] of the same molecule?
Answer: 24.15 nmol/L

Question: And the Lyso-Gb3 [2, 17]?
Answer: 8.46 nmol/L

Question: What about the Lyso-Gb3 [2, 18] of the same molecule?
Answer: 13.10 nmol/L

Question: And the Lyso-Gb3 [2, 19]?
Answer: 8.55 nmol/L

Question: What about the Lyso-Gb3 [2, 20] of the same molecule?
Answer: 27.30 nmol/L

Question: And the Lyso-Gb3 [2, 21]?
Answer: 7.36 nmol/L

Question: What about the “eGFR(MDRD), IDMS Traceable” value [3, 7] of the same molecule?
Answer: 42

Question: And the “eGFR(MDRD), IDMS Traceable” value [3, 8]?
Answer: 37

Question: What about the “eGFR(MDRD), IDMS Traceable” value [3, 9] of the same molecule?
Answer: 32

Question: And the eGFR ([3]; Fabry patient P3, Aug ′15)?
Answer: 32 mL/min/1.73 m^2

Question: And the eGFR ([3]; Fabry patient P3, Aug ′17)?
Answer: 19 mL/min/1.73 m^2

Question: What about the “eGFR(MDRD), IDMS Traceable” value [3, 10] of the same molecule?
Answer: 37

Question: And the “eGFR(MDRD), IDMS Traceable” value [3, 11]?
Answer: 19

Question: And the “eGFR(MDRD), IDMS Traceable” value [3, 12]?
Answer: 42

Question: And the “eGFR(MDRD), IDMS Traceable” value [3, 13]?
Answer: 13

Question: And the “eGFR(MDRD), IDMS Traceable” value [3, 14]?
Answer: 13

Question: What about the “eGFR(MDRD), IDMS Traceable” value [3, 15] of the same molecule?
Answer: 32

Question: And the eGFR ([3]; Fabry patient P3, Mar ′11)?
Answer: 59 mL/min/1.73 m^2

Question: What about the “eGFR(MDRD), IDMS Traceable” value [3, 16] of the same molecule?
Answer: 59

Question: And the “eGFR(MDRD), IDMS Traceable” value [3, 17]?
Answer: 28

Question: What about the “eGFR(MDRD), IDMS Traceable” value [3, 18] of the same molecule?
Answer: 21

Question: And the eGFR ([3]; Fabry patient P3, May ′17)?
Answer: 21 mL/min/1.73 m^2

Question: What about the eGFR ([3]; Fabry patient P3, Nov ′17) of the same molecule?
Answer: 15 mL/min/1.73 m^2

Question: What about the “eGFR(MDRD), IDMS Traceable” value [3, 19] of the same molecule?
Answer: 15

Question: And the “eGFR(MDRD), IDMS Traceable” value [3, 20]?
Answer: 54

Question: What about the “eGFR(MDRD), IDMS Traceable” value [3, 21] of the same molecule?
Answer: 33

Question: What about the “disease progression as shown by surrogate markers” value [4] of the same molecule?
Answer: slowed the progression of the disease

Question: What about the “accumulation of plasma migalastat” value ([5]; multiple ascending dose studies) of the same molecule?
Answer: only minimal accumulation

Question: And the “Mean Cmax and AUC0-t values versus dose” value ([5]; oral doses from 75 mg to 1250 mg)?
Answer: increased in a dose-proportional manner

Question: What about the “Mean percent of the dose recovered in urine” value (from here on “Mean percent”) ([5]; 25 mg) of the same molecule?
Answer: 32.2%

Question: What about the “Mean percent” value ([5]; 75 mg) of the same molecule?
Answer: 43.0%

Question: What about the “Mean percent” value ([5]; 225 mg) of the same molecule?
Answer: 49.3%

Question: What about the “Mean percent” value ([5]; 675 mg) of the same molecule?
Answer: 48.5%

Question: And the “time to maximum concentrations” value ([5]; single-dose studies, oral, healthy volunteers and Fabry patients with normal to mildly impaired renal function (range, 1 to 6 hrs))?
Answer: approximately 3 hours

Question: What about the “effect on cardiac repolarization” value [6] of the same molecule?
Answer: negative
